# Reference: patent publication US11026972B2, “Methods for generating macrophages with enhanced cancer phagocytosis” (Georgia State University Research Foundation, Inc., priority 2016, dated 2021)
# Columns and labels:
# PEMs = assay: Activated PEM phagocytosis toward RBCs in the presence of antibodies/inhibitors against phagocytic receptors; assay type: cell-based, mouse; conditions: antibodies 10 μg/mL; BLT1 5 μM; laminarin 100 μg/mL; heparin 40 U/mL
# Experimental: FIGS. 6A-6D include data related to our investigation of possible phagocytic receptors on macrophages for phagocytosing healthy self-cells. […] PEMs, with or without (ctl.) treatment with LPS, IL-17, IL-6, or PMA, were labeled for cell surface LRP1 and CRT followed by FACS. […] Activated PEM phagocytosis toward RBCs was tested in the presence of antibodies against SR-A, Fc receptor Cd16/32 (10 μg/mL of each), inhibitors against SR-B (BLT1, 5 μM), dectin (laminarin, 100 μg/mL), complement (heparin, 40 U/mL), and antibody against Cd11b (10 μg/mL). […] Data presented in each panel represent at least three independent experiments with n≥4, if applicable.
# Ex vivo macrophage phagocytosis: Mouse spleens were harvested and minced in cold HBSS followed by passing through nylon meshes. The spleen cells in suspensions were collected by centrifugation followed by washing. After lysis of RBC, splenocytes were plated in cell culture dishes in DMEM with 10% FBS and cultured for 2 h followed by removal of non-adherent cells. The adherent cells, ˜70% being macrophages as determined by anti-F4/80 staining, were tested for phagocytosis. For phagocytosis of RBC or other tissue cells, targeted cells were labeled with CFSE prior to addition into the macrophage-containing wells. Macrophages and target cells, at a ratio of 1:5-10 for RBC or 1:1-2 for other cells, were co-incubated for 30 min at 37° C. followed by gently washing. Macrophage phagocytosis of target cells was then analyzed by fluorescence microscopy and/or by FACS. […] Alternatively, the freshly isolated splenocytes in suspension were incubated with CFSE-labeled RBC and other phagocytic targets for 30 min at 37° C. Macrophage phagocytosis was then determined by FACS after labeling macrophages with anti-F4/80. To test phagocytosis of apoptotic cells, B16 cells were irradiated by UV for 150 seconds at 50 J/m^2 strength. Apoptosis was analyzed at 2, 4, 6, 8 and 18 h post UV irradiation by labeling of the cells with anti-phosphatidylserine (PS) antibody (data not shown) or FITC-conjugated annexin V (data not shown). Cells that were confirmed to be apoptotic were trypsinized, labeled with CFSE, and then co-incubated with macrophages for 30 min at 37° C. After gentle washing, phagocytosis was analyzed by fluorescence microscopy and/or FACS. To test phagocytosis of bacteria and the fungal product zymosan, AlexaFluor-conjugated E.coli strain […] (2 μl suspension, ˜2 μg) or zymosan bioparticles (1 μl suspension, ˜2 μg) (both from Invitrogen) were incubated with macrophages for 30 min followed by washing and analyses. Similar procedures were performed to test phagocytosis of macrophages from various sources. […]
# [1] = system: SIRPα^−/− and CD47^−/− mice; assay: Acute anemia and splenomegaly in mice deficient of CD47-SIRPα-mediated inhibition under inflammatory conditions; assay type: in vivo, mouse; conditions: SIRPα^−/− and CD47^−/− mice; zymosan 3 times every other day; IL-6 2×10 μg/kg i.v.; LPS 0.25 mg/kg i.p.; CFA s.c.
# Description: FIGS. 1A-1K illustrate our assessment of acute anemia in mice deficient of CD47-SIRPα-mediated inhibition under inflammatory conditions. FIG. 1A includes a schematic drawing of a wild type (WT) and targeted allele of SIRPα (“SIRPα”) and data related to the generation of SIRPα “knock out” (KO) mice. […] Western blot (WB) analysis confirmed the depletion of SIRPα (˜120 kDa) protein in bone marrow leukocytes from SIRPα^−/− mice. FIG. 1B includes a photograph of intestinal tissue and a line graph charting the change in body weight of mice in which colitis had been induced by treatment with 1% or 2% DSS. […] FIGS. 1C and 1D include data related to acute anemia and splenomegaly developed in SIRPα^−/− mice with colitis. WT mice and SIRPα^−/− mice treated with DSS (2% DSS for WT and 1% DSS for SIRPα^−/−) for 10 days were analyzed for the presence of […] (FIG. 1C) and the content of hemoglobin in peripheral blood (FIG. 1D). FIG. 1E includes a panel of photomicrographs in which hematoxylin and eosin (H&E) was used to stain sections of spleens from WT and SIRPα^−/− mice treated with 2% and 1% DSS for 10 days. The bar graph of FIG. 1E illustrates the hemoglobin content in the spleens of WT and SIRPα^−/− mice treated with water or DSS. FIG. 1F is a pair of line graphs showing the time course over which anemia developed in SIRPα^−/− mice when colitis was induced with DSS and the levels of IL-17 in the serum over that same period of time. FIG. 1G is a diagram showing that IL-17 neutralization ameliorates anemia and splenomegaly in SIRPα^−/− mice with colitis. An anti-IL-17 antibody (10 μg, i.v.) was given on days 6 and 8 (arrows) during DSS-induction of colitis. FIG. 1H is a diagram showing that IL-17-containing colitic serum induces acute anemia in SIRPα^−/− mice. Serum samples collected from healthy (Ctl.) and colitic WT mice (2% DSS, 10 d) were administered to healthy SIRPα^−/− mice (i.v., 3×, arrows) with or without an anti-IL-17 antibody. FIGS. 1I and 1J are illustrative graphs showing that IL-17 directly induces acute anemia and splenomegaly in SIRPα^−/− mice and Cd47^−/− mice. Healthy mice were given recombinant IL-17 (10 μg/kg, i.v.) on days 1 and 3 (arrows, FIG. 1J); anemia and splenomegaly were analyzed on day 5 (FIG. 1I) or in a time course manner (FIG. 1J). FIG. 1K includes diagrams showing that acute anemia and splenomegaly in SIRPα^−/− and Cd47^−/− mice under zymosan-peritonitis (3×, every other day), IL-6 administration ([…], i.v.), LPS (0.25 mg/kg, i.p.), and CFA (1×, s.c.) administrations. Error bars are ±SEM **P<0.01, ***P<0.001 vs. control or the beginning time point. Data presented in each panel represent at least three independent experiments with n≥4, if applicable.
# Hemoglobin assay: To assay blood hemoglobin, 10 μl of whole blood were obtained from the tail vein followed by lysis in 1 ml distilled water. After centrifugation (13,000 rpm, 30 min), the hemoglobin-containing supernatants were collected and measured for the optical density at the wavelength of 540 nm.
# Animal inflammation models: To induce peritonitis, mice (6-8 wk, 20-22 g) were intraperitoneally injected with 0.5 mg zymosan A (Sigma) in 0.5 ml sterile PBS followed by euthanasia at 2, 4, 6 and 8 hours. […] The colitic condition was then assessed by observing diarrhea, measuring body weight loss, increases of inflammatory cytokines, the shortage of the large intestine and intestinal tissue analyses (after euthanasia). […]
# [2] = system: splenic macrophages, PEMs and BMDMs; assay: Ex vivo macrophage phagocytosis toward RBCs and other self-cells after activation; assay type: cell-based, mouse; conditions: PEM; lack of the CD47-SIRPα-mediated inhibition
# Experimental: FIGS. 3A-3H include data related to our experiments assaying macrophage phagocytosis ex vivo. FIGS. 3A and 3B show macrophage phagocytosis of RBCs. Freshly isolated splenic macrophages (MØ) and peritoneal macrophages (PEM) and in vitro-derived BMDM (bone marrow-derived macrophages) were tested for phagocytosis toward CFSE-labeled Cd47^+ or Cd47^− RBCs. […] FIGS. 3F and 3G illustrate LPS and IL-17-activated PEM phagocytosis toward splenocytes (FIG. 3F), B16, and EL4 (FIG. 3G). Error bars are ±SEM. **P<0.01, ***P<0.001 vs. no treatment controls. […] PEM lavaged without (ctl.) or with Brewer thioglycollate (3%, i.p.) elicitation was tested. Error bars are ±SEM. ***P<0.001 vs. control PEM. Data presented in each panel represent at least three independent experiments with n≥4, if applicable.
# FIGS. 4A-4E include data related to our experiments on macrophage phagocytic plasticity. FIG. 4A is a panel of illustrative line graphs showing that IL-10 inhibits macrophage phagocytosis toward “self.” PEMs were treated with LPS and activating cytokines along with various concentrations of IL-10 before testing their ability to phagocytose RBCs. FIG. 4B illustrates the phagocytic plasticity of WT red pulp macrophages. […] Treatments of cultured macrophages with LPS and IL-17 re-elicited their phagocytosis toward RBCs. […] Error bars are ±SEM. ***P<0.001 vs. freshly isolated splenic macrophages. FIG. 4D includes microscopic images of RBC phagocytosis by LPS- and IL-17-treated splenic macrophages. […] WT PEMs treated with LPS or IL-17 were further treated with Cd47^+ RBCs or Cd47-AP (10 min, 37° C.) followed by cell lysis, SIRPα immunoprecipitation, and WB detection of SIRPα phosphorylation (SIRPα^pY) and SHP-1 association. Data presented in each panel represent at least three independent experiments with n≥4, if applicable.
# Ex vivo macrophage phagocytosis: Mouse spleens were harvested and minced in cold HBSS followed by passing through nylon meshes. The spleen cells in suspensions were collected by centrifugation followed by washing. After lysis of RBC, splenocytes were plated in cell culture dishes in DMEM with 10% FBS and cultured for 2 h followed by removal of non-adherent cells. The adherent cells, ˜70% being macrophages as determined by anti-F4/80 staining, were tested for phagocytosis. For phagocytosis of RBC or other tissue cells, targeted cells were labeled with CFSE prior to addition into the macrophage-containing wells. Macrophages and target cells, at a ratio of 1:5-10 for RBC or 1:1-2 for other cells, were co-incubated for 30 min at 37° C. followed by gently washing. Macrophage phagocytosis of target cells was then analyzed by fluorescence microscopy and/or by FACS. To better recognize macrophages, macrophages in wells were labeled with an anti-F4/80 or an anti-CD11b antibody. Alternatively, the freshly isolated splenocytes in suspension were incubated with CFSE-labeled RBC and other phagocytic targets for 30 min at 37° C. Macrophage phagocytosis was then determined by FACS after labeling macrophages with anti-F4/80. To test phagocytosis of apoptotic cells, B16 cells were irradiated by UV for 150 seconds at 50 J/m^2 strength. Apoptosis was analyzed at 2, 4, 6, 8 and 18 h post UV irradiation by labeling of the cells with anti-phosphatidylserine (PS) antibody (data not shown) or FITC-conjugated annexin V (data not shown). Cells that were confirmed to be apoptotic were trypsinized, labeled with CFSE, and then co-incubated with macrophages for 30 min at 37° C. After gentle washing, phagocytosis was analyzed by fluorescence microscopy and/or FACS. To test phagocytosis of bacteria and the fungal product zymosan, AlexaFluor-conjugated E.coli strain […] (2 μl suspension, ˜2 μg) or zymosan bioparticles (1 μl suspension, ˜2 μg) (both from Invitrogen) were incubated with macrophages for 30 min followed by washing and analyses. Similar procedures were performed to test phagocytosis of macrophages from various sources. […]
LPS-induced PEM phagocytosis toward RBCs (PEMs),Molecule,anemia and splenomegaly [1],ability to induce macrophage phagocytosis toward self [2]
failed to affect,laminarin,,
failed to affect,CCCCCCC1CCCC1=NNC(N)=S (centres unmarked) [BLT1],,
failed to affect,heparin,,
,"IL-6: recombinant murine cytokine, PeproTech (protein, UniProt P08505 25-211, looked up) Interleukin-6: FPTSQVRRGDFTEDTTPNRPVYTTSQVGGLITHVLWEIVEMRKELCNGNSDCMNNDDALAENNLKLPEIQRNDGCYQTGYNQEICLLKISSGLLEYHSYLEYMKNNLKDNKKDKARVLQRDTETLIHIFNQEVKDLHKIVLPTPISNALLTDKLESQKEWLRTKTIQFILKSLEEFLKVTLRSTRQT",induced the same result,have the ability to induce macrophage phagocytosis toward self
